Earlier results on 17 compounds are cited in patent publication US12251395B2, “RNAS for complement inhibition” (Apellis Pharmaceuticals, Inc., priority 2019, dated 2025).

For orientation: IC50 means the concentration that gives 50% inhibition.

The test system of series [1] is complement activation. To be noted: relative to compstatin amidated at the C-terminus; published data.
The test system of series [2] is complement activation. To be noted: alternative pathway-mediated erythrocyte lysis assay (WO2004/026328); read-out: IC50 of compstatin.

Bridges are numbered along the chain shown (N, C = ends). [ ]: non-standard residue; d: D form. Trp(5-F) = N[C@@H](Cc1c[nH]c2ccc(F)cc12)C(=O)O; Trp(5-Me) = Cc1ccc2[nH]cc(C[C@H](N)C(=O)O)c2c1; Trp(6-F) = N[C@@H](Cc1c[nH]c2cc(F)ccc12)C(=O)O; Bpa = N[C@@H](Cc1ccc(C(=O)c2ccccc2)cc1)C(=O)O; 1Nal = N[C@@H](Cc1cccc2ccccc12)C(=O)O; 2Nal = N[C@@H](Cc1ccc2ccccc2c1)C(=O)O; Igl = N[C@H](C(=O)O)C1Cc2ccccc2C1

Regarding “H-GICV(6fW)QD(6fW)GAHRCTN-COOH (H-GICV[Trp(6-F)]QD[Trp(6-F)]GAHRCTN-OH; disulfide 3-13 (inferred)) [+G/V4(6fW)/W7(6fW)H9A+FN-OH]”, in series [1], the “Activity over corn statin” value is reported as 126xmore.

For “Ac-ICV(Bpa)QDWGAHRCT-COOH (Ac-ICV[Bpa]QDWGAHRCT-OH; disulfide 2-12 (inferred)) [Ac-V4(Bpa)/H9A -OH]”, the “Activity over corn statin” value in series [1] is 49xmore. With “Ac-ICV(2-Nal)QDWGAHRCT-CONH2 (Ac-ICV[2Nal]QDWGAHRCT-NH2; disulfide 2-12 (inferred)) [Ac-V4(2-Nal)/H9A]”, the “Activity over corn statin” value in series [1] is 99xmore. Regarding “Ac-ICVWQDWGAHRCT-CONH2 (Ac-ICVWQDWGAHRCT-NH2; disulfide 2-12 (inferred)) [Ac-V4W/H9A]”, the “Activity over corn statin” value in series [1] is given as 45xmore. With “Ac-ICVWQDWGAHRCdT-COOH [Ac-V4W/H9A/T13dT -OH]”, the “Activity over corn statin” value in series [1] was 55xmore.

“Ac-ICV(2-Nal)QDWGAHRCT-COOH (Ac-ICV[2Nal]QDWGAHRCT-OH; disulfide 2-12 (inferred)) [Ac V4(2-Nal)/H9A -OH]”: in series [1], the “Activity over corn statin” value is 38xmore. Consider “Ac-ICVWQD(5fW)GAHRCT-CONH2 (Ac-ICVWQD[Trp(5-F)]GAHRCT-NH2; disulfide 2-12 (inferred)) [Ac-V4W/W7(5fW)/H9A]”, for which the “Activity over corn statin” value in series [1] is 121xmore. Take “Ac-ICV(1-Nal)QDWGAHRCT-COOH (Ac-ICV[1Nal]QDWGAHRCT-OH; disulfide 2-12 (inferred)) [Ac V4(1-Nal)/H9A -OH]”: the “Activity over corn statin” value in series [1] was 30xmore. Take `CC[C@H](C)[C@H](N)C(=O)N[C@H]1CSSC[C@@H](C(=O)N[C@H](C(N)=O)[C@@H](C)O)NC(=O)[C@H](CCCN=C(N)N)NC(=O)[C@H](Cc2cnc[nH]2)NC(=O)[C@H](Cc2cnc[nH]2)NC(=O)CNC(=O)[C@H](Cc2c[nH]c3ccccc23)NC(=O)[C@H](CC(=O)O)NC(=O)[C@H](CCC(N)=O)NC(=O)[C@H](C(C)C)NC(=O)[C@H](C(C)C)NC1=O` [Compstatin, H-ICVVQDWGHHRCT-CONH2]: the IC50 in series [2] is 12 µM.

In the case of “Ac-ICV(5fW)QDWGAHRCT-CONH2 (Ac-ICV[Trp(5-F)]QDWGAHRCT-NH2; disulfide 2-12 (inferred)) [Ac-V4(5fW)/H9A]”, the “Activity over corn statin” value in series [1] was 31xmore. As for “Ac-ICV(Bpa)QDWGAHRCT-CONH2 (Ac-ICV[Bpa]QDWGAHRCT-NH2; disulfide 2-12 (inferred)) [Ac-V4(Bpa)/H9A]”, the “Activity over corn statin” value in series [1] is reported as 86xmore. Consider “Ac-ICV(2-IgI)QDWGAHRCT-COOH (Ac-ICV[Igl]QDWGAHRCT-OH; disulfide 2-12 (inferred)) [Ac-V42IgI/H9A -OH]”, for which the “Activity over corn statin” value in series [1] is reported as 37xmore.

Turning to Ac-ICVYQDWGAHRCT-CONH2 [Ac-V4Y/H9A], the “Activity over corn statin” value in series [1] was 14xmore. “Ac-ICV(2-IgI)QDWGAHRCT-CONH2 (Ac-ICV[Igl]QDWGAHRCT-NH2; disulfide 2-12 (inferred)) [Ac-V42IgI/H9A]”: in series [1], the “Activity over corn statin” value is reported as 39xmore. For the compound “Ac-ICWQDWGHHRCT-NH2 (cysteine pairing not given here) [Ac-compstatin]”, the “Activity over corn statin” value in series [1] is listed as 3xmore.

Consider “Ac-ICV(5-methyl-W)QDWGAHRCT-CONH2 (Ac-ICV[Trp(5-Me)]QDWGAHRCT-NH2; disulfide 2-12 (inferred)) [Ac-V4(5-MeW)/H9A]”, for which, in series [1], the “Activity over corn statin” value was 67xmore. “H-GICV(5fW)QD(5fW)GAHRCTN-COOH (H-GICV[Trp(5-F)]QD[Trp(5-F)]GAHRCTN-OH; disulfide 3-13 (inferred)) [G/V4(5f-W)/W7(5fW)/H9A+FN-OH]”: the “Activity over corn statin” value in series [1] is listed as 112xmore.
